# “And” between values parts separate entries of the source, which are not always exact repeats. Identical values can stand only once. Like-named read-outs stand apart in the source and are kept apart here.
# Tests used:
# [1] = biological target: T1, mouse SLO3 (KSper currents in mouse sperm) (Mus musculus, UniProt O54982); experiment: Whole-cell recording of KSper currents in mouse sperm; format: cell-based; conditions: for Hill coefficient: mouse sperm KSper currents; for IC50: whole-cell recordings from mouse sperm
# T1 construct: sperm were isolated from the corpus epididymis by swim-out; endogenous in cells; host or cells: C57Bl/6 mouse corpus epididymal sperm
# T1 sequence (O54982 1-1121): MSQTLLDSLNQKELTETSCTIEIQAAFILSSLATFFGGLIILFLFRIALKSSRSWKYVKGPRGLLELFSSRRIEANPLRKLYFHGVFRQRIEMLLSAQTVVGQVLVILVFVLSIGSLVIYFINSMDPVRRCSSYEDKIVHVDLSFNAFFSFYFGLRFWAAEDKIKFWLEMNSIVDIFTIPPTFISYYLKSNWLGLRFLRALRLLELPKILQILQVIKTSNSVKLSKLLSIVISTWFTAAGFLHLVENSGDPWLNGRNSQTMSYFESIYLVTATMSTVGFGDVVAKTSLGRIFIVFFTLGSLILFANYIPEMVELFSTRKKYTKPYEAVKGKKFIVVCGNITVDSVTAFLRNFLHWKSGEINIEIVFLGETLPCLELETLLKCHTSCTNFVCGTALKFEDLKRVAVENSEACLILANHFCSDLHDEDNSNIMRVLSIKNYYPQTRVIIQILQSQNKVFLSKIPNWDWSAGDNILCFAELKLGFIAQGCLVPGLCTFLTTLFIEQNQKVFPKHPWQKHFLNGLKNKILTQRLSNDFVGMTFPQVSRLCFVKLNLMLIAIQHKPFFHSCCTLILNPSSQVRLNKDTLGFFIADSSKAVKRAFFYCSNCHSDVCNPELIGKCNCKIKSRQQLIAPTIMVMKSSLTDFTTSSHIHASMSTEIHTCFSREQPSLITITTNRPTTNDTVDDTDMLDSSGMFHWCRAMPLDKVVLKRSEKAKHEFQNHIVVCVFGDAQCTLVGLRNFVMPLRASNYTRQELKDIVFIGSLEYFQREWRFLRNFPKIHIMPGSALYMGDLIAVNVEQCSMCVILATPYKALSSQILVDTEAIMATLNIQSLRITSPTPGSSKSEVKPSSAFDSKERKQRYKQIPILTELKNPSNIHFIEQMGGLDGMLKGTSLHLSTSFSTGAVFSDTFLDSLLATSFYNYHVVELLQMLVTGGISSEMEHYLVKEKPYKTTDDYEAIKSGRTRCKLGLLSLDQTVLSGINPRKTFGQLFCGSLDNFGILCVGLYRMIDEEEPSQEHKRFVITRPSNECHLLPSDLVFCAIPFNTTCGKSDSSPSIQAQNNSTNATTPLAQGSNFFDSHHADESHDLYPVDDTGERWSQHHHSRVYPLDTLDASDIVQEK
# T1 sequence (Q5M8M9 24-314 partner): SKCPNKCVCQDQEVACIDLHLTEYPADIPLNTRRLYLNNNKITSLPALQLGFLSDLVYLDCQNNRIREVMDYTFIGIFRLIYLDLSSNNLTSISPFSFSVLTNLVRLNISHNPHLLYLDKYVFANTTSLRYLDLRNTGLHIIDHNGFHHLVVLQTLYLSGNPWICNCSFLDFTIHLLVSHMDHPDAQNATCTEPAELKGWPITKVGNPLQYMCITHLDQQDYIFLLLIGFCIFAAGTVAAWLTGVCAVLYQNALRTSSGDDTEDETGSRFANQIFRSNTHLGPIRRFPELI
# Description: Electrophysiology: C57Bl/6 sexually mature male mice (60–90 days old) were euthanized by inhalation of CO2 followed by cervical dislocation and sperm were isolated from the corpus epididymis by swim-out. Then the sperm suspension was collected and centrifuged (500×g, 6 min) twice to purify the sperm. HEPES-buffered saline (HS) was used for sperm swim-out and storage. It contained (in mM): 135 NaCl, 5 KCl, 1 MgSO4, 2 CaCl2, 20 HEPES, 5 glucose, 10 lactic acid, and 1 Na·pyruvate at pH 7.4. The sperm suspension was kept at room temperature (∼22 °C) for 4–6 h until recording. All animal husbandry and experimental procedures were approved by the Animal Studies Committee of the Washington University in St. Louis School of Medicine.
# Voltage-clamp recordings were performed using an Axopatch 200B amplifier (Molecular Devices). Recordings were filtered at 5 kHz with the internal filter of the amplifier and digitized at 50 kHz using a Digidata 1550B digitizer (Molecular Devices). Recording pipettes were pulled from borosilicate glass with tip resistances of 3–8 MΩ after filling with pipette solution containing (in mM): 140 KMES, 1 EGTA, 10 HEPES, pH 7.4 with KOH. Bath solutions contained (in mM): 135 NaMES, 5 KMES, 2 MgCl2, and 10 HEPES, pH 7.4 with NaOH. Experiments were performed at room temperature (∼22 °C). Whole-cell currents were evoked from a holding potential of −60 mV in steps from −80 to +100 mV in 10 mV increments. Test compounds were prepared daily from a 10 mM stock solution (in DMSO).
# For mouse sperm recordings, the pipettes were fire-polished with Microforge MF-830 (Narishige, Japan) to reach tip resistances of 8–12 MΩ. The giga-ohm (GΩ) seals were formed between the glass micropipette and the sperm cytoplasmic droplet in HS solution. Break-in to whole-cell mode was achieved by applying short (1–5 ms) voltage pulses of 488–888 mV.
# Data were analyzed with a pClamp 10.6 (Molecular Devices). VU6047606 and VU6032735 inhibition dose–response relationships were fit by the Hill equation in OriginPro 7.5 (OriginLab Corporation): R=1/1+(C/IC50)^n+Ioff , in which R is fractional unblock, C is compound concentration, IC50 is the half inhibition concentration, n is the Hill coefficient, and I off is an offset item for leak current. Error bars in the figures represent the SDs. Each data point is averaged from at least 5 measurements. Curve-fitting results are reported as the fitted values with standard error, which was estimated by OriginPro according to the Error Propagation formula.
# [2] = Multispecies hepatocyte MetID; format: in vitro ADME, human; conditions: 4 h incubation with hepatocytes, 10 μM
# Description: Metabolites were identified after preincubating each compound at a 10 μM final concentration with 2.5 × 10^5 hepatocytes from human, dog, cynomolgus monkey, and rat in 200 μL of Optiincubate buffer (BioIVT, Westbury, NY). […] After centrifugation, 60 μL of the supernatant was transferred to 60 μL of water for LC-MS analysis. Samples were analyzed using a Thermo Scientific Vanquish UHPLC consisting of a VH-P10-A pump, a VH-A10-A sampler module, a VH-C10-A column compartment, and the VF-D11-A UV detector coupled to an Orbitrap Fusion Lumos instrument with UVPD. A binary solvent system consisting of (A) water with 0.1% formic acid and (B) acetonitrile with 0.1% formic acid was used with an Accucore Vanquish C18+, 2.1 mm × 100 mm, 1.5 μm, UHPLC column maintained at 40 °C. The data generated by data-dependent acquisition via normal acquisition and AcquireX were processed manually with Thermo Scientific FreeStyle and assisted by Compound Discoverer 3.3.1.111 to aid in the structural assignments.
# [3] = biological target: Platelet Activating Factor (PAF) (Homo sapiens, UniProt P25105); experiment: LeadProfilingScreen radioligand binding
# Platelet Activating Factor (PAF), sequence (P25105 whole entry): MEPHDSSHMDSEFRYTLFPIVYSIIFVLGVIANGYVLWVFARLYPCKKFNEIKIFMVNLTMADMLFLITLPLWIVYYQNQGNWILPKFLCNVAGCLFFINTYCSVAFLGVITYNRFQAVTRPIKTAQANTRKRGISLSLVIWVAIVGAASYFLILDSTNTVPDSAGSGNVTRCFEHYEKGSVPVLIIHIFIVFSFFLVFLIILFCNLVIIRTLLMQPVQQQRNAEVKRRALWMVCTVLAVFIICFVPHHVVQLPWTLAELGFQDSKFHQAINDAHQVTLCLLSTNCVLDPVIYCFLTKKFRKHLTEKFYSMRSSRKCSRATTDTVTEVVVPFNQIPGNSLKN
structure (smiles),measurement,setting,value
O=C(c1ccc(OCc2ccc(OC(F)(F)F)cc2)cc1)N1CCN(c2ccc(C(F)(F)F)cn2)CC1 [VU6032735],fold more potent than VU6047606 on mouse SLO3 currents,[1]; mouse sperm,~1.6 fold
same,Hill coefficient,[1],0.78 ± 0.07
same,IC50,[1]; read-out: mSLO3 IC50 (mouse sperm),910 nM
same,"% of Parent Related Material, Human",[2],> 98%
same,inhibition at 10 µM,[3],-2%
Cc1cc(Cl)cc2sc(O[C@H]3CCN(C(=O)CCCS(=O)(=O)c4cccc(Br)c4)C[C@H]3F)nc12 [VU6047606],Hill coefficient,[1],1.02 ± 0.12
same,IC50,"[1]; currents at +100 mV, read-out: mSLO3 IC50 (mouse sperm KSper currents)",1470 nM
same,"% of Parent Related Material, Human",[2],91.66% and > 82%
same,inhibition at 10 µM,[3],8%

# Reference: publication PMC12441834, “Highly Potent and Subtype-Selective Sperm-Specific Potassium Channel SLO3 Inhibitors Display High Tissue Exposure in the Murine Female Reproductive Tract” (ACS Pharmacology & Translational Science, 2025)
